# Patent publication US9233989B2, “Sila analogs of oxazolidinone derivatives and synthesis thereof” (Council of Scientific & Industrial Research, priority 2011, dated 2016)
# Experiments:
# [1] = system: S.aureus ATCC 13709 Smith; experiment: MIC by microbroth dilution method; assay type: cell-based
# [2] = system: S.aureus ATCC 29213; experiment: MIC by microbroth dilution method; assay type: cell-based
# [3] = system: MRSA ATCC 43300; experiment: MIC by microbroth dilution method; assay type: cell-based, S. aureus
# [4] = system: MRSA 562; experiment: MIC by microbroth dilution method; assay type: cell-based, S. aureus
# [5] = system: S.aureus2 (PVL + ve); assay type: cell-based, S. aureus
# [6] = system: S.aureus ATCC Newman 25904; experiment: MIC by microbroth dilution method; assay type: cell-based
# [7] = system: MRSA ATCC BAA 39; experiment: MIC by microbroth dilution method; assay type: cell-based, S. aureus
# [8] = system: S.aureus DB00026; experiment: MIC by microbroth dilution method; assay type: cell-based
# [9] = system: MRSA 252 BAA 1720; experiment: MIC by microbroth dilution method; assay type: cell-based, S. aureus
# [10] = system: S.epidermidis ATCC 14990; experiment: MIC by microbroth dilution method; assay type: cell-based
# [11] = system: MRSE ATCC 35984; experiment: MIC by microbroth dilution method; assay type: cell-based, S. epidermidis
# [12] = system: E.faecalis ATCC 29212; experiment: MIC by microbroth dilution method; assay type: cell-based
# [13] = system: E.faecalis ATCC 51299(VRE&HLAR); experiment: MIC by microbroth dilution method; assay type: cell-based
# [14] = system: E.faecalis ATCC 19433; experiment: MIC by microbroth dilution method; assay type: cell-based
# [15] = system: E.faecium ATCC 19434; experiment: MIC by microbroth dilution method; assay type: cell-based
# [16] = system: E.faecium ATCC 49224; experiment: MIC by microbroth dilution method; assay type: cell-based
# [17] = system: E.faecium ATCC 35667; experiment: MIC by microbroth dilution method; assay type: cell-based
# [18] = system: E.coli 7632; experiment: MIC by microbroth dilution method; assay type: cell-based
# [19] = system: S.aureus ATCC 49775 PVL + ve; assay type: cell-based
# [20] = system: S.aureus ATCC 700699 Mu50; experiment: MIC by microbroth dilution method; assay type: cell-based
# [21] = system: MRSA 0-2657; experiment: MIC by microbroth dilution method; assay type: cell-based, S. aureus
# [22] = system: MRSA DB 00026; experiment: MIC by microbroth dilution method; assay type: cell-based, S. aureus
# [23] = system: S.aureus 13709 LNZ mutant; assay type: cell-based
# [24] = system: S.epidermidis ATCC 12228; experiment: MIC by microbroth dilution method; assay type: cell-based
# [25] = system: MRSE ATCC 35983; experiment: MIC by microbroth dilution method; assay type: cell-based, S. epidermidis
# [26] = system: S.epidermis St 358; experiment: MIC by microbroth dilution method; assay type: cell-based, S. epidermidis
# [27] = system: E.faecalis SP 346 VRE; experiment: MIC by microbroth dilution method; assay type: cell-based
# [28] = system: E.faecium 6A VRE; experiment: MIC by microbroth dilution method; assay type: cell-based
# [29] = system: E.faecium 134 VRE; experiment: MIC by microbroth dilution method; assay type: cell-based
# [30] = system: E.faecium 06076 VRE; experiment: MIC by microbroth dilution method; assay type: cell-based
# [31] = system: E.faecium ATCC 3567; experiment: MIC by microbroth dilution method; assay type: cell-based
# [32] = system: Mycobacterium tuberculosis H37Rv; experiment: Anti-TB activity, colorimetric resazurin microtiter assay; assay type: cell-based; conditions: for anti-tubercular activity (in words): Mycobacterium tuberculosis H37Rv; for MIC: Mycobacterium tuberculosis, H37RV, read-out: MIC, Minimum Inhibitory Concentration (90%)
SMILES,MIC [1],MIC [2],MIC [3],MIC [4],MIC [5],MIC [6],MIC [7],MIC [8],MIC [9],MIC [10],MIC [11],MIC [12],MIC [13],MIC [14],MIC [15],MIC [16],MIC [17],MIC [18],MIC [19],MIC [20],further results
"CC(=O)NC[C@H]1CN(c2ccc(N3CC[Si](C)(C)CC3)c(F)c2)C(=O)O1 [NDS-10024, (S)—N-((3-(4-(4,4-dimethyl-1,4-azasilinan-1-yl)-3-fluorophenyl)-2-oxooxazolidin-5-yl)methyl)acetamide]",16 µg/mL,16 µg/mL,16 µg/mL,16 µg/mL,16 µg/mL,16 µg/mL,16 µg/mL,16 µg/mL,16 µg/mL,8 µg/mL,8 µg/mL,16 µg/mL,16 µg/mL,16 µg/mL,16 µg/mL,8 µg/mL,8 µg/mL,> 32 µg/mL,16 µg/mL,8 µg/mL,MIC [21]: 8 µg/mL; MIC [22]: 16 µg/mL; MIC [23]: > 16 µg/mL; MIC [24]: 8 µg/mL; MIC [25]: 8 µg/mL; MIC [26]: 8 µg/mL; MIC [27]: 16 µg/mL; MIC [28]: 16 µg/mL; MIC [29]: 16 µg/mL; MIC [30]: 16 µg/mL; MIC [31]: 16 µg/mL; anti-tubercular activity (in words) [32]: good anti-tubercular activity; MIC [32]: 6.25 µg/mL
"C[Si]1(c2ccccc2)CCN(c2c(F)cc(N3C[C@H](CN)OC3=O)cc2F)CC1 [NDS-10070, (S)-5-(aminomethyl)-3-(3,5-difluoro-4-(4-methyl-4-phenyl-1,4-azasilinan-1-yl)phenyl)oxazolidin-2-one]",> 32 µg/mL,> 32 µg/mL,> 32 µg/mL,32 µg/mL,> 32 µg/mL,> 32 µg/mL,> 32 µg/mL,> 32 µg/mL,> 32 µg/mL,> 32 µg/mL,32 µg/mL,32 µg/mL,32 µg/mL,32 µg/mL,32 µg/mL,32 µg/mL,32 µg/mL,32 µg/mL,> 32 µg/mL,> 32 µg/mL,MIC [21]: > 32 µg/mL; MIC [22]: > 32 µg/mL; MIC [23]: > 32 µg/mL; MIC [24]: > 32 µg/mL; MIC [25]: > 32 µg/mL; MIC [26]: > 32 µg/mL; MIC [27]: > 32 µg/mL; MIC [28]: > 32 µg/mL; MIC [29]: > 32 µg/mL; MIC [30]: > 32 µg/mL; MIC [31]: > 32 µg/mL; MIC [32]: 50 µg/mL
"COC(=S)NC[C@H]1CN(c2ccc(N3CC[Si](C)(C)CC3)c(F)c2)C(=O)O1 [NDS-10062, (S)—O-methyl((3-(4-(4,4-dimethyl-1,4-azasilinan-1-yl)-3-fluorophenyl)-2-oxooxazolidin-5-yl)methyl)carbamothioate]",4 µg/mL,4 µg/mL,4 µg/mL,4 µg/mL,4 µg/mL,4 µg/mL,4 µg/mL,4 µg/mL,8 µg/mL,4 µg/mL,2 µg/mL,1 µg/mL,4 µg/mL,2 µg/mL,8 µg/mL,4 µg/mL,4 µg/mL,2 µg/mL,4 µg/mL,8 µg/mL,MIC [21]: 4 µg/mL; MIC [22]: 4 µg/mL; MIC [23]: 4 µg/mL; MIC [24]: > 32 µg/mL; MIC [25]: 4 µg/mL; MIC [26]: 4 µg/mL; MIC [27]: 4 µg/mL; MIC [28]: 8 µg/mL; MIC [29]: 4 µg/mL; MIC [30]: 4 µg/mL; MIC [31]: 4 µg/mL; MIC [32]: 50 µg/mL
"CCC(=O)NC[C@H]1CN(c2cc(F)c(N3CC[Si](C)(C)CC3)c(F)c2)C(=O)O1 [NDS-10056, (S)—N-((3-(4-(4,4-dimethyl-1,4-azasilinan-1-yl)-3,5-difluorophenyl)-2-oxooxazolidin-5-yl)methyl)propionamide]",> 32 µg/mL,> 32 µg/mL,16 µg/mL,8 µg/mL,8 µg/mL,16 µg/mL,32 µg/mL,> 32 µg/mL,32 µg/mL,16 µg/mL,32 µg/mL,32 µg/mL,8 µg/mL,32 µg/mL,32 µg/mL,32 µg/mL,32 µg/mL,> 32 µg/mL,32 µg/mL,16 µg/mL,MIC [21]: 16 µg/mL; MIC [22]: 32 µg/mL; MIC [23]: > 32 µg/mL; MIC [24]: 8 µg/mL; MIC [25]: 32 µg/mL; MIC [26]: 32 µg/mL; MIC [27]: 16 µg/mL; MIC [28]: 8 µg/mL; MIC [29]: 32 µg/mL; MIC [30]: > 32 µg/mL; MIC [31]: 32 µg/mL; MIC [32]: 50 µg/mL
"COC(=O)NC[C@H]1CN(c2ccc(N3CC[Si](C)(C)CC3)c(F)c2)C(=O)O1 [NDS-10061, (S)-methyl((3-(4-(4,4-dimethyl-1,4-azasilinan-1-yl)-3-fluorophenyl)-2-oxooxazolidin-5-yl)methyl)carbamate]",8 µg/mL,16 µg/mL,> 32 µg/mL,16 µg/mL,16 µg/mL,16 µg/mL,16 µg/mL,8 µg/mL,16 µg/mL,8 µg/mL,8 µg/mL,8 µg/mL,32 µg/mL,16 µg/mL,32 µg/mL,16 µg/mL,16 µg/mL,8 µg/mL,16 µg/mL,32 µg/mL,MIC [21]: 16 µg/mL; MIC [22]: 16 µg/mL; MIC [23]: 32 µg/mL; MIC [24]: > 32 µg/mL; MIC [25]: 16 µg/mL; MIC [26]: 32 µg/mL; MIC [27]: 16 µg/mL; MIC [28]: 32 µg/mL; MIC [29]: 16 µg/mL; MIC [30]: 32 µg/mL; MIC [31]: 32 µg/mL; MIC [32]: 25 µg/mL
"COC(=O)NC[C@H]1CN(c2cc(F)c(N3CC[Si](C)(C)CC3)c(F)c2)C(=O)O1 [NDS-10053, (S)-methyl(3-(4-(4,4-dimethyl-1,4-azasilinan-1-yl)-3,5-difluorophenyl)-2-oxooxazolidin-5-yl)methylcarbamate]",16 µg/mL,16 µg/mL,16 µg/mL,16 µg/mL,16 µg/mL,16 µg/mL,8 µg/mL,16 µg/mL,8 µg/mL,8 µg/mL,8 µg/mL,32 µg/mL,16 µg/mL,32 µg/mL,16 µg/mL,32 µg/mL,8 µg/mL,> 32 µg/mL,16 µg/mL,8 µg/mL,MIC [21]: 8 µg/mL; MIC [22]: 32 µg/mL; MIC [23]: > 32 µg/mL; MIC [24]: 8 µg/mL; MIC [25]: 32 µg/mL; MIC [26]: 16 µg/mL; MIC [27]: 32 µg/mL; MIC [28]: 4 µg/mL; MIC [29]: 32 µg/mL; MIC [30]: > 32 µg/mL; MIC [31]: 16 µg/mL; MIC [32]: 50 µg/mL
"C[Si]1(C)CCN(c2c(F)cc(N3C[C@H](Cn4ccnn4)OC3=O)cc2F)CC1 [NDS-10058, (R)-5-((1H-1,2,3-triazol-1-yl)methyl)-3-(4-(4,4-dimethyl-1,4-azasilinan-1-yl)-3,5-difluorophenyl)oxazolidin-2-one]",> 32 µg/mL,> 32 µg/mL,> 32 µg/mL,> 32 µg/mL,32 µg/mL,32 µg/mL,> 32 µg/mL,> 32 µg/mL,> 32 µg/mL,> 32 µg/mL,32 µg/mL,32 µg/mL,32 µg/mL,32 µg/mL,32 µg/mL,> 32 µg/mL,> 32 µg/mL,16 µg/mL,32 µg/mL,> 32 µg/mL,MIC [21]: > 32 µg/mL; MIC [22]: > 32 µg/mL; MIC [23]: 32 µg/mL; MIC [24]: > 32 µg/mL; MIC [25]: 16 µg/mL; MIC [26]: 32 µg/mL; MIC [27]: 32 µg/mL; MIC [28]: 16 µg/mL; MIC [29]: 4 µg/mL; MIC [30]: 32 µg/mL; MIC [31]: > 32 µg/mL; anti-tubercular activity (in words) [32]: good anti-tubercular activity; MIC [32]: 12.5 µg/mL
